Data published in patent US10759749B2, “Therapeutic agent for diabetes” (JCR Pharmaceuticals Co., Ltd., priority 2016, dated 2020).
Like-named read-outs stand apart in the source and are kept apart here. Each block holds one compound with its values, some of them ahead of it.

Tests used:
MIN6-K8 cells [1] = assay: Insulin secretion stimulation test using MIN6-K8 cells; assay type: cell-based; settings: for insulin secretion from MIN6-K8 cells (relative to control): 1 μM to 100 μM test compound, 11.2 mM glucose, 30 minutes; for amount of insulin secretion from MIN6-K8 cells at 100 μM compared with 30 μM: concentration of 100 μM
Procedure: MIN6-K8 cells (cells similar to the MIN6-m9 cell line deposited as FERM P-18081) were cultured in Dulbecco's modified Eagle's medium (DMEM medium) supplemented with 10% FBS, 50 μM 2-mercaptoethanol, 100 mg/L streptomycin and 60.5 mg/L penicillin sulfate at 37° C. After washing the MIN 6-K8 cells twice with medium, the cells were washed twice with 133.4 mM NaCl, 4.7 mM KCl, 1.2 mM KH2PO4, 1.2 mM MgSO4, 2.5 mM CaCl2, 5.0 mM NaHCO3, 2.8 mM glucose, 0.1% BSA and 10 mM HEPES buffer (pH 7.4) for 30 minutes. Cells were then cultured for 30 minutes in the KRBH buffer containing the test compound and 11.2 mM glucose. After incubation, the concentration of insulin contained in the KRBH buffer solution was measured using an insulin assay kit (CIS Bio International Inc.). The concentration of insulin was obtained as a relative value when the concentration of insulin when the test compound was not added was taken as 1. Here, DSC108 and C8 were used as test compounds, and the abilities to promote insulin secretion of both drugs were compared within a concentration range of 1 μM to 100 μM. Measurement was carried out with n=3.
For the 1,1-diphenyl-4-cyclohexyl-semicarbazide derivatives numbered 2 to 7 shown in Table 1, an insulin secretion stimulation test using the above MIN6-K8 cells was performed. The concentration of the test compound was 100 μM, and the amount of secretion when the amount of insulin secreted when no test compound was added was taken as 1 was measured. Incidentally, the number 1 is 1,1-diphenyl-4-cyclohexyl-semicarbazide represented by the chemical formula (18). Numbers 2 to 7 are compounds in which one of hydrogen atoms on the cyclohexyl ring of 1,1-diphenyl-4-cyclohexyl-semicarbazide is substituted with a carboxyl group.

[2] = tested on: type 2 diabetes model rats; assay: Measurement of hypoglycemic action using type 2 diabetes model rats (glucose loading); assay type: in vivo; settings: GK/Slc rats, oral 100 mg/kg body weight
Procedure: To male GK/Slc rats (Japan SLC Inc.) 18-30 weeks old fasted for 6 hours, DSC108-Na was orally administered at 100 mg/kg body weight 20 minutes before glucose loading (1.5 g glucose/kg body weight) (DSC108-Na administration group). As a control, DSC108-Na non-administration group (vehicle administration group) was placed. The glucose concentration in the blood was measured using Antsense III glucose analyzer (Horiba Inc.). In addition, blood insulin concentration was measured by an ELISA method using an insulin measurement kit (Morinaga Inc.). Not limited to this examination, all animal tests were conducted in accordance with the provisions of the Kobe University Animal Experiment Implementation Rules with the approval of the Animal Experimental Ethics Committee of Kobe University.

wild type mice = assay: Measurement of hypoglycemic action using wild type mice (glucose loading); assay type: in vivo, C57BL/6JJc1 mice; settings: oral 10 to 100 mg/kg body weight, 20 minutes before glucose loading 1.5 g/kg
Procedure: To male C57BL/6JJc1 mice (CLEA Japan Inc.) of 18 to 30 weeks old fasted for 16 hours, 10, 30 or 100 mg/kg body weight of DSC108-Na was orally administered 20 minutes before glucose loading (1.5 g glucose/kg body weight) (10 mg/kg body weight administration group, 30 mg/kg body weight administration group and 100 mg/kg body weight administration group, respectively). As a control, DSC108-Na non-administration group (vehicle administration group) was placed. Glucose concentration in the blood was measured over time over 120 minutes after the administration using Antsense III glucose analyzer (Horiba Inc.). Measurement was carried out using 4 mice in each group.

[3] = mouse, in vivo, po, 30 mg/kg
Procedure: (§1) Peripheral blood was collected over time from the tail vein after administration. The collected blood was centrifuged to obtain plasma. An extraction solution (chloroform:methanol:water=1:2:0.8) containing 20 μM methionine sulfone was added to the plasma, followed by stirring and centrifugation. After filtering the extracted solution fraction with a 5 kD filter (Millipore Inc.), the extract was lyophilized. The extract obtained by lyophilization was dissolved in pure water and subjected to mass spectrometry. Mass spectrometry was performed using a mass spectrometer (LCMS-8050, Shimazu Inc.) fitted with liquid chromatography (Nexera UHPLC, Shimazu Inc.). Separation by liquid chromatography was performed with a double gradient of 0.1% formic acid aqueous solution and 0.1% acetonitrile formic acid solution using Discovery HS F5 column (3 μm, 2.1 mm×150 mm, Shigma-Aldrich Inc.).

pancreatic β cells = assay: Electrophysiological test using pancreatic β cells (membrane potential, perforated patch clamp); assay type: cell-based, C57BL/6 mice; settings: in the presence of 30 μM compound; −69±2 mV in its absence
Procedure: Islets were isolated from C57BL/6 mice by collagenase digestion method in accordance with the method described “in Shibasaki T. Proc Natl Acad Sci USA. 104, 19333-8 (2007)”. The pancreatic islet cells were dispersed and cultured in DMEM supplemented with 10% FBS, and then plated on a 3.5 cm dish sheeted prior to the experiment with a glass flake coated with collagen.
Membrane potential of pancreatic β cells was measured by a perforated patch clamp method (Gonoi T J J. Biol. Chem., 269: 16989-92 (1994)) in current clamp mode. As an extracellular solution, 5 mM HEPES buffer-NaOH (pH 7.4) containing 143 mM NaCl, 5.4 mM KCl, 1.8 mM CaCl2, 0.5 mM MgCl2, 0.33 mM NaHPO4 and 5.5 mM glucose was used. As a pipette solution, 11 mM HEPES-KOH buffer (pH 7.4) containing 107 mM KCl, 11 mM EGTA, 2 mM MgSO4, 1 mM CaCl2 and […] ATP-K2 was used. Under this condition, outward current induced by 30 μM DSC108 was measured by a pierced patch clamp assay.

MIN6-K8 cells [4] = assay: Measurement of intracellular calcium ion concentration (Fura-2-AM); assay type: cell-based; settings: 3 μM to 30 μM, 2.8 mM glucose
Procedure: In accordance with the method described in “Shimaoto K. Mol Pharmacol. 53, 195-201 (1998)”, measurement of intracellular calcium concentration was performed using fura-2-acetoxymethyl ester (Fura-2-AM, Dojindo Inc.) which is a calcium ion sensitive fluorescent reagent. MIN6-K8 cells were grown in Dulbecco's modified Eagle medium (DMEM medium) supplemented with 10% FBS, 50 μM 2-mercaptoethanol, 100 mg/L streptomycin and 60.5 mg/L penicillin sulfate in a humidified condition of 5% CO2, at 37° C.
MIN6-K8 cells were then left alone in KRBH buffer containing 5 μM Fura-2-AM and 2.8 mM glucose at 37° C. for 20 minutes. Then, KRBH buffer containing 3 μM, 10 μM or 30 μM of DSC108 was each added as a test compound and fluorescence intensity at 340 nm and 380 nm were measured using a dual wavelength fluorometer (Fluoroskan Ascent CF, Labsystem Inc.) over time for 20 minutes and the values of “fluorescence intensity at 340 nm/fluorescence intensity at 380 nm” were determined. […] Measurement was carried out with n=4.

mouse pancreases = assay: Insulin secretion stimulation test using mice (pancreas perfusion); assay type: in vivo; settings: 10 μM, 2.8 mM glucose, perfused mouse pancreas
Procedure: Insulin secretion stimulation test using mouse was performed in accordance with the method described in Bonnevie-Nielsen V. Diabetes. 30. 424-9 (1981) and Miki T. Diabetes. 54. 1056-63 (2005). Male mice, 16 to 20 weeks old, fasted for 6 hours, were anesthetized by administering sodium pentobarbital at a dose of 80 mg/kg body weight. The anesthetized mouse pancreases were perfused with KRBH buffer containing 4.6% dextran and 0.25% BSA aerated at 95% O2/5% CO2.
Subsequently, mouse pancreases were perfused with KRBH buffer containing 2.8 mM glucose and 10 μM DSC 108, and the perfused solution was collected every minute, and the concentration of insulin contained in the perfusion solution was measured with an insulin assay kit (CIS Bio international Inc.) over time. IN parallel, as a control, mouse pancreases were perfused with a KRBH buffer solution containing 2.8 mM glucose, and the concentration of insulin contained in the perfusion solution was measured in the same manner.

[5] = biological target: T1, KATP channel (human SUR1 and human Kir6.2 reconstituted in COS-1 cells) (Homo sapiens, UniProt Q09428); assay: Electrophysiological test using KATP channel expressing COS-1 cells; assay type: cell-based; settings: 300 μM diazoxide; read-out: IC50 of inhibition of polarization of COS-1 cell membrane via KATP channel induced by diazoxide
T1 construct: expressed in transfected cells; host or cells: COS-1 cells
T1 sequence (Q09428 whole entry): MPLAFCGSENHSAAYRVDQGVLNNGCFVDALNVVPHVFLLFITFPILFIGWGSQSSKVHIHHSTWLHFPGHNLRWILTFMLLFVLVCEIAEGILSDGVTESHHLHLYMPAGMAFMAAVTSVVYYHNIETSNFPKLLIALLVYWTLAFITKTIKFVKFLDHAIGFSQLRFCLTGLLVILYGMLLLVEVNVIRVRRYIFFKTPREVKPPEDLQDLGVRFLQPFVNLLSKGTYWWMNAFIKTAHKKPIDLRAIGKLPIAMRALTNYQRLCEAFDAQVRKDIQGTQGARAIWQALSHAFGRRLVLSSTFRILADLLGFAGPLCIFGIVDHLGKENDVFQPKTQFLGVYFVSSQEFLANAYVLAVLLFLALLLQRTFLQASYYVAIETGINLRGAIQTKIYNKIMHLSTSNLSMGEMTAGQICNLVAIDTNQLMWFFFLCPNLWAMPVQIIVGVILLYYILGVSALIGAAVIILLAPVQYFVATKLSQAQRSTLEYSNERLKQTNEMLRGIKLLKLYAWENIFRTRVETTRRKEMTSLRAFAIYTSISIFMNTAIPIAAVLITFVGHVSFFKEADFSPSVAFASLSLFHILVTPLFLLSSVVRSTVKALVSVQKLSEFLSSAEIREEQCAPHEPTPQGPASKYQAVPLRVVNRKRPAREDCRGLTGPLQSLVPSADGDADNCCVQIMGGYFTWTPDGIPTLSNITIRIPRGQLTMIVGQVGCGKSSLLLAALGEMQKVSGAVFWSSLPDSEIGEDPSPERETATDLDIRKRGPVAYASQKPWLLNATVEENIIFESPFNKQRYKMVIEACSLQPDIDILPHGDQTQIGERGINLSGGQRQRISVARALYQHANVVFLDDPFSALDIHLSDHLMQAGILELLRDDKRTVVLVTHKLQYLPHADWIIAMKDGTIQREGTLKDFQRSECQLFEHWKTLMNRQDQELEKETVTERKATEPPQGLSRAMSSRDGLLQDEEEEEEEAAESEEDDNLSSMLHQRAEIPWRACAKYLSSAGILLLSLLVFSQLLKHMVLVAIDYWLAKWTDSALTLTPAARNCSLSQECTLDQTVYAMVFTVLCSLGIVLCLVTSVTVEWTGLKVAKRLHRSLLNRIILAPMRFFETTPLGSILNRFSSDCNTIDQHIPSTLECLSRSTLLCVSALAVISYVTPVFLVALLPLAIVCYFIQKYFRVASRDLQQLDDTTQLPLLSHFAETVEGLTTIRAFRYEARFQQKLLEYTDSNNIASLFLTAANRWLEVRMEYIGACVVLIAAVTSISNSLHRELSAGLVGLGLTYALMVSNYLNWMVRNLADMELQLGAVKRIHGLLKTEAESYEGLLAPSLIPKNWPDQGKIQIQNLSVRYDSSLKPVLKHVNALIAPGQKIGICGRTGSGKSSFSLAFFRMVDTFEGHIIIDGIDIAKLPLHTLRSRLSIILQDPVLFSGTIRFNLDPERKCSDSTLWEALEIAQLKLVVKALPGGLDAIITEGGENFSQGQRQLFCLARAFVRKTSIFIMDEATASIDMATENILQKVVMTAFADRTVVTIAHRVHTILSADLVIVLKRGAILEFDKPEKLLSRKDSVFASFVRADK
T1 sequence (Q14654 whole entry partner): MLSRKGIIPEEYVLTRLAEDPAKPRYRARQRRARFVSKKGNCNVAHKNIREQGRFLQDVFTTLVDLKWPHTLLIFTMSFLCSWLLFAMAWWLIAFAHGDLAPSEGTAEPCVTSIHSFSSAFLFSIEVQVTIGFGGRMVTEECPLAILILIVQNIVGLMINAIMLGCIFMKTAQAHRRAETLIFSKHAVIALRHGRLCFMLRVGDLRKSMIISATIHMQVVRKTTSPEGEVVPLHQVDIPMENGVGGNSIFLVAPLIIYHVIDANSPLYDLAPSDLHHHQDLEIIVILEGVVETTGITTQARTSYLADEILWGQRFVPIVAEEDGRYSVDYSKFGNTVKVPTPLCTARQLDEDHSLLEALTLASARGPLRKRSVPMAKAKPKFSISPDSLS
Procedure: Expression vectors incorporating the gene encoding human SUR1 (hSUR1) and expression vector incorporating the gene encoding human Kir6.2 (hKir6.2) were introduced into COS-1 cells together, and the KATP channel was reconstituted with COS-1 cells (Inagaki N. Science. 270, 1166-70 (1995)). The cells were cultured in DMEM medium (Sigma-Aldrich Inc.) supplemented with 10% FBS and plated on a 3.5 cm dish on which glass flakes coated with collagen had been spread prior to the experiment, and incubated at 37° C. for 24 to 72 hours.
The membrane potential of COS-1 cells reconstituted with KATP channels was determined by the method described in (Gonoi TJ Biol. Chem., 269: 16989-92 (1994)), in the current clamp mode with perforated patch clamp method. […] Inhibitory effect of DSC108 on the polarization of COS-1 cell membrane via KATP channel induced by 300 μM diazoxide (Sigma Chemical Inc.) under these conditions was measured.
At this time, outward current induced by 300 μM diazoxide (Sigma Chemical Inc.) was measured by […] patch clamp assay, and this value was set to 0 mV. The value of outward current when DSC108, glibenclamide or glicrazaide (Sigma Chemical Inc.) was added together with diazoxide was determined to determine the inhibitory effect (IC50) of these agents on the polarization of the cell membrane induced by diazoxide.

human SUR1 (hSUR1) = biological target: T2, human SUR1 (hSUR1) (Homo sapiens, UniProt Q09428); assay: [^3H] glibenclamide competition test; assay type: binding; settings: 10 nM [^3H] glibenclamide, 30 minutes
T2 construct: expressed in transfected cells
T2 sequence (Q09428 whole entry): as the sequence (Q09428 whole entry) above
Procedure: An expression vector incorporating a gene encoding human SUR1 (hSUR1) was introduced into MIN6-K8 cells by a conventional method to establish a cell line MIN6-K8, which expresses hSUR1 strongly. The MIN6-K8 cells expressing strongly hSUR1 were cultured in a buffer containing 10 nM [^3H] glibenclamide and DSC108-Na for 30 minutes. In this, the concentration of DSC108-Na in the buffer was 300 μM to 1 mM. The cells were vacuum-filtered and recovered on Whatmann GF/C filters (Whatmann International Inc.), and then the filters were washed three times with 4 mL of ice-cold buffer. After washing, radioactivities of the filters were measured with a liquid scintillation counter, and the amount of [^3H] glibenclamide bound to MIN6-K8 cells expressing strongly hSUR1 via hSUR1 was measured. Then, the value at the time of non-addition of DSC108-Na was taken as 100%, and the binding amount (%) of [^3H] glibenclamide to MIN6-K8 cells was determined as a relative value to this value.

[6] = Measurement of blood concentration after oral administration
Procedure: as §1

SMILES: S=C(NC1CCCCC1)NN(c1ccccc1)c1ccccc1 [C8, 1,1-diphenyl-4-cyclohexyl-thiosemicarbazide]
insulin secretion from MIN6-K8 cells (relative to control) (MIN6-K8 cells [1]): promoted insulin secretion from MIN6-K8 cells in a concentration-dependent manner | amount of insulin secretion from MIN6-K8 cells at 100 μM compared with 30 μM (MIN6-K8 cells [1]): decreased as compared with the concentration at 30 μM

disappearance from the blood [3]: quickly disappeared from the blood | highest value in blood concentration [3]: 72.4 µM | time after administration of the highest blood concentration [3]: 30 min
SMILES: O=C(O)[C@H]1CC[C@@H](NC(=S)NN(c2ccccc2)c2ccccc2)CC1 [DSC108-Na]
duration of the effect of lowering the glucose concentration in the blood [2]: 120 min | blood levels of insulin ([2]; 20 minutes after administration): increase in blood levels of insulin was observed | hypoglycemic effect (blood glucose concentration) (wild type mice): dose-dependent hypoglycemic effect

IC50 [5]: 2300 nM
SMILES: O=C(O)[C@H]1CC[C@@H](NC(=S)NN(c2ccccc2)c2ccccc2)CC1 [DSC108]
membrane potential of pancreatic β cells (pancreatic β cells): −54±4 mV | intracellular calcium ion concentration (fluorescence 340 nm/380 nm) (MIN6-K8 cells [4]): increased intracellular calcium ion concentration in a concentration-dependent manner | time after initiation of perfusion at which insulin concentration in the perfusion liquid increased (mouse pancreases): 5 min | time after start of perfusion at which insulin concentration returned to baseline (mouse pancreases): 9 min | insulin secretion promoting ability compared between the two test compounds (MIN6-K8 cells [1]; 1 μM to 100 μM): higher insulin secretion promoting ability as compared with C8 | insulin secretion from MIN6-K8 cells (relative to control) (MIN6-K8 cells [1]): promoted insulin secretion from MIN6-K8 cells in a concentration-dependent manner | amount of insulin secretion from MIN6-K8 cells at 100 μM compared with 30 μM (MIN6-K8 cells [1]): decreased as compared with the concentration at 30 μM | binding of [^3H] glibenclamide to hSUR1-strongly expressed MIN6-K8 cells (human SUR1 (hSUR1)): inhibited the binding of [^3H] glibenclamide to hSUR1-strongly expressed MIN6-K8 cells in a concentration-dependent manner

concentration at 120 min ([6]; male, C57BL/6JJc1, mouse, plasma, po, 30 mg/kg): 75 µM | time after administration of the highest blood concentration ([6]; mice, oral, 30 mg/kg body weight): 60 min | highest value in blood concentration ([6]; mice, oral, 30 mg/kg body weight, plasma): approximately 100 μM
SMILES: Cc1ccc(S(=O)(=O)NC(=O)NN2CC3CCCC3C2)cc1 (centres unmarked) [Glyclazide, gliclazide]
